Results taken from article PMC4255150 (Structure (London, England : 1993), 2014).

Target: T1, AmiA (Bacteroides uniformis, UniProt A0ABC9NAU1)
T1 sequence (A0ABC9NAU1 24-262): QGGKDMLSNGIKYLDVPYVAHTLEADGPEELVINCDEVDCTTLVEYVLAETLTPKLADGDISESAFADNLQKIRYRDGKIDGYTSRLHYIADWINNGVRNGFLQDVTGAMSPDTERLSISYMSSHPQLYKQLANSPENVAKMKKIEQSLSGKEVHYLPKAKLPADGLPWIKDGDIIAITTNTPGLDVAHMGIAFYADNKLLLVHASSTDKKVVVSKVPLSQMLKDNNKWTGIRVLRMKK
Experiment: HPLC inhibition assay with TCT
Assay type: biochemical
Conditions: 0.1 mM TCT substrate, pH 7.8, 37°C

CC(=O)N[C@H]1[C@H](O[C@H]2[C@H](O[C@H](C)C(=O)O)[C@@H](NC(C)=O)[C@@H]3OC[C@H]2O3)O[C@H](CO)[C@@H](O)[C@@H]1O [GlcNAc-anhMurNAc]
% activity retained at 1 mM (reaction product): 15%

CC(=O)N[C@H]1C(O)O[C@H](CO)[C@@H](O)[C@@H]1O (stereo partly drawn) [GlcNAc]
% activity retained at 1 mM: 98%

CC(=O)N[C@H]1C(O)O[C@H](CO)[C@@H](O)[C@@H]1O[C@H](C)C(=O)O (stereo partly drawn) [MurNAc]
% activity retained at 1 mM: 25%
